# Laboratory results taken from US9409905B2, “Antibacterial compounds and methods for use” (PTC THERAPEUTICS, INC., priority 2011, dated 2016).
# Like-named read-outs stand apart in the source and are kept apart here.
# Tests used:
# [1] = system: Escherichia coli (E. coli) BAS849; assay: Antibacterial activity, microbroth dilution MIC (Table 1); type: cell-based
# In short: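 Each strain is exposed to test compound in a microbroth dilution series; visible growth is scored macroscopically, and the lowest growth-free concentration is recorded as MIC in μg/mL.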
# [2] = system: Staphylococcus aureus (S. aureus) 29213; assay: as above; type: cell-based
# In short: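 Using broth microdilution, MIC endpoints (μg/mL) mark where visible growth no longer appears; the panel spans sensitive and control Gram-negative strains plus a Gram-positive strain.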
# E. coli 25922 = assay: as above; type: cell-based, Escherichia coli
# In short: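 MIC (μg/mL) read as lowest concentration with no macroscopically visible growth; microbroth dilution format. E. coli 25922 served as control Gram-negative strain.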
# E. coli LZ3111 = assay: Antibacterial activity, MIC, quinolone resistant strain (Table 2); type: cell-based; settings: Escherichia coli, LZ3111, read-out: MIC LZ3111
# In short: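 Microbroth dilution method; MIC (μg/mL) is the lowest drug concentration preventing macroscopically visible growth under test conditions.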
# [3] = system: Acinetobacter baumannii (A. baumannii) BAA747; assay: Antibacterial activity, MIC (Table 4); type: cell-based
# In short: (§1)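 Activity was measured by microbroth dilution. The MIC, in μg/mL, is the lowest drug concentration that prevents macroscopically visible growth under the test conditions. The resistant strains are multi-drug resistant clinical isolates.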
# [4] = system: Klebsiella pneumoniae (K. pneumoniae) 35657; assay: Antibacterial activity, MIC (Table 4); type: cell-based
# In short: as §1
# A. baumannii MXX2240 = assay: Antibacterial activity, MIC, resistant strain (Table 4); type: cell-based; settings: Acinetobacter baumannii
# In short: as §1
# K. pneumoniae MXX1232 = assay: as above; type: cell-based; settings: Klebsiella pneumoniae
# In short: as §1
# [5] = system: Pseudomonas aeruginosa (P. aeruginosa) 27853; assay: Antibacterial activity, MIC (Table 5); type: cell-based
# In short: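 Activity was measured by microbroth dilution. The MIC, in μg/mL, is the lowest drug concentration that prevents macroscopically visible growth under the test conditions.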
# [6] = microbroth dilution, super sensitive Gram-negative E. coli BAS849, read-out: MIC, BAS849
# [7] = microbroth dilution, Gram-positive S. aureus 29213, read-out: MIC, 29213
# [8] = Escherichia coli, microbroth dilution, control Gram-negative E. coli 25922 strain, read-out: MIC, 25922
# [9] = A. baumannii BAA747, read-out: MIC, BAA747
# [10] = K. pneumoniae 35657, read-out: MIC, 35657
# [11] = MXX2240, resistant A. baumannii MMX2240, multi-drug resistant clinical isolate, read-out: MIC, MMX2240
# [12] = MXX1232, resistant K. pneumoniae MMX1232, multi-drug resistant clinical isolate, read-out: MIC, MMX1232
# [13] = P. aeruginosa 27853, read-out: MIC, 27853
# [14] = Escherichia coli, 25922, read-out: MIC, 25922
# [15] = MXX2240, read-out: MIC, MMX2240
# [16] = MXX1232, read-out: MIC, MMX1232
Compound,"MIC [1, 6] [µg/mL]","MIC [2, 7] [µg/mL]",MIC (E. coli 25922; [8]) [µg/mL],MIC (E. coli LZ3111) [µg/mL],"MIC [3, 9] [µg/mL]","MIC [4, 10] [µg/mL]",MIC (A. baumannii MXX2240; [11]) [µg/mL],MIC (K. pneumoniae MXX1232; [12]) [µg/mL],"MIC [5, 13] [µg/mL]","MIC ([1]; read-out: MIC, BAS849) [µg/mL]","MIC ([2]; read-out: MIC, 29213) [µg/mL]",MIC (E. coli 25922; [14]) [µg/mL],"MIC ([3]; BAA747, read-out: MIC, BAA747) [µg/mL]","MIC ([4]; read-out: MIC, 35657) [µg/mL]",MIC (A. baumannii MXX2240; [15]) [µg/mL],MIC (K. pneumoniae MXX1232; [16]) [µg/mL],"MIC ([5]; read-out: MIC, 27853) [µg/mL]"
"Cc1c(-c2ccc3c(c2)cc(CNC2CC2)n3C)[nH]c(=O)c(C(=O)O)c1O [Cpd 355, 6-(2-((cyclopropylamino)methyl)-1-methyl-1H-indol-5-yl)-4-hydroxy-5-methyl-2-oxo-1,2-dihydropyridine-3-carboxylic acid]",< 1,12.5 to 150,3.5 to 12.5,< 1,3.5 to 12.5,3.5 to 12.5,< 1,12.5 to 150,12.5 to 150,,,,,,,,
"CCc1c(-c2cc3ccc(OC)cc3[nH]2)[nH]c(=O)c(C(=O)O)c1O [Cpd 379, 5-ethyl-4-hydroxy-6-(6-methoxy-1H-indol-2-yl)-2-oxo-1,2-dihydropyridine-3-carboxylic acid]",3.5 to 12.5,12.5 to 150,12.5 to 150,12.5 to 150,12.5 to 150,12.5 to 150,12.5 to 150,12.5 to 150,12.5 to 150,,,,,,,,
"CCc1cc(C(=O)O)c(=O)[nH]c1-c1ccc2c(c1)ncn2C [Cpd 53, 5-ethyl-6-(1-methyl-1H-benzo[d]imidazol-5-yl)-2-oxo-1,2-dihydropyridine-3-carboxylic acid]",3.5 to 12.5,12.5 to 150,12.5 to 150,12.5 to 150,12.5 to 150,12.5 to 150,12.5 to 150,12.5 to 150,12.5 to 150,,,,,,,,
"CCC(C)NCc1cc2cc(-c3[nH]c(=O)c(C(=O)O)c(O)c3C)ccc2n1C (stereo not drawn) [Cpd 347, 6-(2-((sec-butylamino)methyl)-1-methyl-1H-indol-5-yl)-4-hydroxy-5-methyl-2-oxo-1,2-dihydropyridine-3-carboxylic acid]",< 1,12.5 to 150,3.5 to 12.5,1 to 3.5,< 1,1 to 3.5,< 1,12.5 to 150,12.5 to 150,,,,,,,,
"CCc1c(-c2ccc3c4c([nH]c3c2)CN(CC)CC4)[nH]c(=O)c(C(=O)O)c1O [Cpd 447, 5-ethyl-6-(2-ethyl-2,3,4,9-tetrahydro-1H-pyrido[3,4-b]indol-7-yl)-4-hydroxy-2-oxo-1,2-dihydropyridine-3-carboxylic acid]",,,,3.5 to 12.5,,,,,,< 1,12.5 to 150,< 1,3.5 to 12.5,< 1,12.5 to 150,12.5 to 150,12.5 to 150
"CCc1c(-c2ccc3[nH]c(-c4ccccc4)cc3c2)[nH]c(=O)c(C(=O)O)c1O [Cpd 454, 5-ethyl-4-hydroxy-2-oxo-6-(2-phenyl-1H-indol-5-yl)-1,2-dihydropyridine-3-carboxylic acid]",< 1,< 1,12.5 to 150,12.5 to 150,12.5 to 150,12.5 to 150,12.5 to 150,12.5 to 150,12.5 to 150,,,,,,,,
"CCCN1CCc2c([nH]c3cc(-c4[nH]c(=O)c(C(=O)O)c(O)c4CC)ccc23)C1 [Cpd 448, 5-ethyl-4-hydroxy-2-oxo-6-(2-propyl-2,3,4,9-tetrahydro-1H-pyrido[3,4-b]indol-7-yl)-1,2-dihydropyridine-3-carboxylic acid]",,,,3.5 to 12.5,,,,,,< 1,12.5 to 150,< 1,3.5 to 12.5,1 to 3.5,3.5 to 12.5,12.5 to 150,12.5 to 150
"CCc1c(-c2ccc3cn(C)nc3c2)[nH]c(=O)c(C(=O)O)c1O [Cpd 389, 5-ethyl-4-hydroxy-6-(2-methyl-2H-indazol-6-yl)-2-oxo-1,2-dihydropyridine-3-carboxylic acid]",3.5 to 12.5,12.5 to 150,12.5 to 150,3.5 to 12.5,12.5 to 150,12.5 to 150,3.5 to 12.5,12.5 to 150,12.5 to 150,,,,,,,,
